Measurements from patent US6767890B1, “Peptides having anti-cancer and anti-inflammatory activity” (priority 1998, dated 2004).
Several values for one entry are separate records, joined by “and”; a condition that tells them apart may be missing. Equal values may be shown once.

Experiments:
histamine H3 receptor = biological target: T1, histamine H3 receptor (Cavia porcellus, UniProt Q9JI35); assay: Histamine H3 Agonism/Antagonism, guinea pig ileum; assay type: cell-based; conditions: Peptide 30 μM, Thioperamide 0.3 μM
T1 construct: ileum obtained from Duncan Hartley derived male or female guinea pigs; from tissue; host or cells: guinea pig ileum segment, field-stimulated
T1 sequence (Q9JI35 whole entry): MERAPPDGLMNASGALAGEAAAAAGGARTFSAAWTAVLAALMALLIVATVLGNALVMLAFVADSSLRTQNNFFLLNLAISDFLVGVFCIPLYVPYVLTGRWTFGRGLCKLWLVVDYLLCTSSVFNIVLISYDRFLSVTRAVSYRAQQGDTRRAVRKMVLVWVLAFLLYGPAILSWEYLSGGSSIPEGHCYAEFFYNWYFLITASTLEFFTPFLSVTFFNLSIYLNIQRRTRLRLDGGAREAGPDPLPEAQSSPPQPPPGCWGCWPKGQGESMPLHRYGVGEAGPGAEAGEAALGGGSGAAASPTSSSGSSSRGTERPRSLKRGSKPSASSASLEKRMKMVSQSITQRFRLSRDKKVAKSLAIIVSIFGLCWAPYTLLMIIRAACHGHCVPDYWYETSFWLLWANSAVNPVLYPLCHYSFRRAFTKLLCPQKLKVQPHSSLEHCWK
Procedure: A segment of ileum obtained from Duncan Hartley derived male or female guinea pigs weighing 325±25 gms and sacrificed by CO2 overexposure were used. The tissue was placed under 0.5 g tension in a 10 ml bath containing Kreb's solution pH 7.4 and pyrilamine (0.3 μM) at 32° C. and subjected to field stimulation (70% of maximum voltage, 0.1 Hz, 0.5 millisecond). Test substance (30 μM)-induced reduction of isometrically recorded contractions 50 percent or more (≧50%) within 5 minutes, relative to control 0.3 μM R-α-methylhistamine response, indicated possible histamine H3 receptor agonist activity. At a test substance concentration where no significant agonist activity was seen, ability to inhibit R-α-methylhistamine-induced response by 50 percent or more (≧50%) indicated histamine H3 receptor antagonist activity. Each concentration was tested on two separate preparations.

[1] = system: oxazolone-induced ear swelling; assay: Immune Suppression, Cellular (oxazolone ear thickness); assay type: in vivo, mouse; conditions: IP, Peptide 100 mg/kg × 5, Cyclophosphamide 30 mg/kg × 5
Procedure: (§1) For in vivo assay, distilled water and saline was used as vehicle in oral and intraperitoneal administration, respectively. Dosing volume was 20 ml/kg for mice or 10 ml/kg for rats.
Groups of 5 ICR derived male mice weighing 22±1 gms were used. The preshaved abdominal surface was sensitized by application of oxazolone 0.1 ml of 5% solution. […] After additional four days, the animals were challenged by secondary application of oxazolone (0.025 ml of 5% solution) to the right ear. After a further 24 hours, each mouse was sacrificed and ear thickness measured with a Dyer Model micrometer gauge. A 30 percent or more (≧30%) decrease relative to the vehicle control group was considered significant and indicated possible immunosuppressant activity.

[2] = system: DNBS-induced distal colitis; assay: Inflammation, Inflammatory Bowel Disease (DNBS distal colitis); assay type: in vivo, rat; conditions: PO, Peptide 30 mg/kg × 7, Sulfasalazine 300 mg/kg × 7
Procedure: as §1
Groups of 3 Sprague-Dawley derived male rats weighing 150±20 gms and fasted for 24 hours were used. Distal colitis was induced by intra-colonic instillation of DNBS (2,4-dinitrobenzene sulfonic acid, 30 mg in 0.5 ml ethanol 30%) after which air (2 ml) was gently injected through the cannula to ensure that the solution remains in the colon. Test substance was administered PO (30 mg/kg) at 24 and 2 hours before DNBS instillation. Then, the animals received test compound every 24 hours for 5 consecutive days. The control group was given vehicle alone as compound dosing pattern. The animals were sacrificed 24 hours after the final dose of test compound administration and each colon was removed and weighed. Colon-to-body weight ratio was obtained from the percentage of the comparison between the animal colon weight and body weight on the 8th day. A 30 percent or more (±30%) reduction in colon-to-body weight ratio relative to the vehicle treated control group was considered significant.

PAF-induced mortality = assay: Platelet Activating Factor (PAF) Antagonism; assay type: in vivo, mouse; conditions: Peptide 100 mg/kg, WEB-2086 3 mg/kg
Procedure: as §1
Groups of 5 male ICR mice weighing 22±2 gms were employed. At dose of 100 mg/kg test substance dissolved in a vehicle of distilled water were administered orally. The control group received vehicle alone. At 60 minutes after dosing, the animals were injected intravenously PAF-acether ([…] IV, dissolved in 0.25% BSA). One hour later, the survival animals were recorded. The prevention of PAF-induced mortality in 50 percent or more (≧50%) of mice indicated significant activity.

Cyclooxygenase-1 = biological target: T2, Cyclooxygenase-1 (Ovis aries, UniProt P05979); assay: Cyclooxygenase-1 enzyme assay; assay type: biochemical, ram; conditions: 300.0 μM; average of duplicate; negative = stimulation
T2 construct: ram seminal; from tissue; host or cells: ram seminal vesicle
T2 sequence (P05979 25-600): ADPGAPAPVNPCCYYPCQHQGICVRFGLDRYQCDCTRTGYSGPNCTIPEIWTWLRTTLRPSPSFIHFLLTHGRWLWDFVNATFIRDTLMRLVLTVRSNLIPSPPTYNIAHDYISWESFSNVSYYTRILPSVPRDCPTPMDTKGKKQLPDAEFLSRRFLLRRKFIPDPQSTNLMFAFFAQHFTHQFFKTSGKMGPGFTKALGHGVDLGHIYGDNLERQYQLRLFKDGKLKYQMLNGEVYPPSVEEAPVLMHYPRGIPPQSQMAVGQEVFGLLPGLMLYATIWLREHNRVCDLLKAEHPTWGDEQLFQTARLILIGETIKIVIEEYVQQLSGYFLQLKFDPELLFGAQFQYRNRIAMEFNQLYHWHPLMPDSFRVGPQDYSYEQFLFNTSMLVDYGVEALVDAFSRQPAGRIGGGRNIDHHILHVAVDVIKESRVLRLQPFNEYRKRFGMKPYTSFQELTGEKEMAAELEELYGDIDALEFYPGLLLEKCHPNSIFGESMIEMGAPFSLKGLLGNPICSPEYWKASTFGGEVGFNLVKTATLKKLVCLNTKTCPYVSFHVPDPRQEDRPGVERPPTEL
Procedure: (§2) The peptide was further screened in vitro in a variety of enzyme and biochemical assays. Methods employed were adapted from the scientific literature to maximize reliability and reproducibility.
(§3) Unless otherwise indicated, the peptide was tested in duplicate at the concentrations indicated for each assay. Results presented in Table 10, “Results,” are the average of duplicate determinations, unless otherwise noted.
(§4) Enzyme assays were performed under conditions described in Table 8, “Experimental Conditions.”. The commercial suppliers and catalog numbers of substrates employed in this study are given in Table 7, “Material Sources.” The name, commercial source, and catalog numbers of concurrent reference compounds (controls) employed in this study are given in Table 9, “Reference Compound Data.” The reaction catalyzed by each enzyme is listed in Table 8, “Experimental Conditions.”
(§5) Biochemical assay results are presented in Table 10, as the percent inhibition of specific binding or activity, and unless noted are the average of duplicate tubes tested at each concentration.

PLA2, Pancreatic = biological target: T3, PLA2, Pancreatic (Sus scrofa, UniProt P00592); assay: PLA2, Pancreatic enzyme assay; assay type: biochemical, porcine; conditions: 300.0 μM; average of duplicate; negative = stimulation
T3 construct: porcine; from tissue; host or cells: porcine pancreas
T3 sequence (P00592 23-146): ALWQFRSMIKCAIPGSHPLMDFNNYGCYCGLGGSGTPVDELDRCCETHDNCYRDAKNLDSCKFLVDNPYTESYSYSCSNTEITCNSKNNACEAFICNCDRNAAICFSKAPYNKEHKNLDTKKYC
Procedure: as §2, with “reproducibility. The primary literature reference for each assay is listed in Table 11 opposite the results for each assay.” for “reproducibility.”
Results presented in Table 10, “Results,” are the average of duplicate determinations, unless otherwise noted.
Reference compounds were tested concurrently at 5 concentrations as an integral part of each assay to ensure the validity of the results obtained.
as §4, §5

Protein Kinase C - γ = Protein Kinase C - γ (Oryctolagus cuniculus, UniProt P10829); assay: Protein Kinase C - γ enzyme assay; assay type: biochemical, rabbit; conditions: 100.0 μM; average of duplicate; negative = stimulation
Procedure: as §2, §3, §4, §5

LEU-PRO-PRO-SER-ARG [Peptide]
Agonism, Ave. (histamine H3 receptor; average of two preparations, R(α)-Methylhistamine 0.3 μM): 4%
Antagonism, Ave. (histamine H3 receptor; average of two preparations): 4%
Antagonism (histamine H3 receptor; individual preparation, reduction of 0.3 μM R(α)-methylhistamine-induced relaxation): 7% and 0%
Agonism (histamine H3 receptor; individual preparation, relaxation within 5 minutes relative to 0.3 μM R-α-methylhistamine, R(α)-Methylhistamine 0.3 μM (0.1 printed in r13)): 0% and 4%
% INH. ([1]; decrease of net ear thickness relative to vehicle control): 17%
Thickness Net, X (group mean) ([1]; group mean): 23.0 × 0.1 mm
Thickness Net ([1]; individual mouse, R. Ear minus L. Ear): 20 × 0.1 mm and 21 × 0.1 mm and 24 × 0.1 mm and 27 × 0.1 mm
Thickness R. Ear ([1]; individual mouse, challenged right ear, 24 hours after oxazolone challenge): 43 × 0.1 mm (2×) and 44 × 0.1 mm and 50 × 0.1 mm
Thickness L. Ear ([1]; individual mouse, left ear): 23 × 0.1 mm (2×) and 22 × 0.1 mm and 20 × 0.1 mm
Ratio Net ([2]; group mean minus blank-control): 0.276%
Ratio Ind., X (group mean) ([2]; group mean): 0.646%
Ratio Ind. (colon-to-body weight ratio) ([2]; individual rat, Colon (g)/8th B.W. × 100%): 0.683% and 0.608%
% INH. ([2]; reduction in colon-to-body weight ratio relative to vehicle control): 22%
% Protection (PAF-induced mortality; PO one hour before PAF-acether 100 μg/kg IV): 0%
No. of Survival (PAF-induced mortality; of 5 mice, one hour after PAF-acether 100 μg/kg IV, PO one hour before): 0
% Inhibition (Cyclooxygenase-1): 2%
% Inhibition (PLA2, Pancreatic): −11%
% Inhibition (Protein Kinase C - γ): −6%
